Assay results as given in patent US20080113938A1, “ACCELERATOR FOR MINERAL ABSORPTION AND USE THEREOF” (KABUSHIKI KAISHA HAYASHIBARA SEIBUTSU KAGAKU KENKYUJO, priority 2003, published 2008).
Marks after values point to notes of the source that are not given here.

System: femur
Experiment: Dry weight, ash, calcium, magnesium and phosphorus of the femur of rats
Type: in vivo, Wister rats
Excerpt: Forty of Wister rats weighing 110 to 120 g (five-weeks aged male, commercialized by Charles River Japan Inc., Yokohama, Japan) were bred with a feed containing ingredients (%) shown in Table 1 for one week in order to be familiarized. The familiarized rats were randomly divided into four groups with ten rats each. Each group was experimentally bred for eight weeks with either a feed without cyclic tetrasaccharide shown in Table 1 (hereinafter, it is called as “basic feed”), or another feed of basic feed supplemented with 1%, 2% or 5% on a dry solid basis, of cyclic tetrasaccharide in a crystalline anhydrous powder form with a purity of 99.5%, prepared in the following Example A-3. These basic feed and three kinds of feeds with cyclic tetrasaccharide were prepared to contain 44.75% of the total amount of cyclic tetrasaccharide and corn starch in each feed. From one week before the end of the breeding test, in order to determine the metabolism of calcium, magnesium, iron, sodium, potassium and phosphorus (hereinafter, may be called “minerals” in all), rats in the all groups were fed with the four types of feeds supplemented with 0.5% of chromium oxide as a non-absorbed marker for the minerals. The rats were bred at 25° C. in a manner of freely allowing to take feeds and water under a condition of 12 hours regular interval between of light and shade. After completion of experimental breeding, all rats were individually weighed to calculate the average of weight and further calculate the rate of increased weight for each group.
Two days before the end of the breeding test, rats were placed into a gauge for measuring metabolism to collect their excrement in two days. The resulting excrement was subjected to the measurement of the contents of cyclic tetrasaccharide, each mineral, and chromium. After the breeding test, the rats were anatomized in an anesthetized condition to take out their alimentary canals including jejunum, intestinum ileum, appendix and colon/rectum. After the resulting alimentary canals were weighed, their contents were also weighed and subjected to the measurement of the amount of cyclic tetrasaccharide, minerals and chromium. The rats, which had been taken out their alimentary canals, were dislocated at their cervical vertebrae and taken out their femurs from right legs. The resulting femurs were subjected to the measurement of the amount of ashes, calcium, magnesium and phosphorus. The following(s) explain the methods of quantitative analysis of cyclic tetrasaccharide and the methods of measurement of minerals and chromium.
Two grams of a feed was preciously weighed in a porcelain crucible, heated to carbonize, and heated at 600° C. to incinerate. After weighed, the resulting test samples were admixed with hydrochloric acid in a precious analysis grade (concentration of 20%, commercialized by Wako Pure Chemicals, Co., Ltd., Osaka, Japan) to give a final concentration of 1%. They were subjected to atomic absorption spectrometry (“Zeeman5100™”, commercialized by PerkinElmer); in the case of measurement of chromium, they were subjected to a flameless type one. In the case of measurement of phosphorus, they were subjected to usual molybdenum blue absorptiometry. On the other hand, 0.1 g of each of the contents of jejunum, intestinum ileum, appendix, colon/rectum, and excrement was subjected to wet-type incineration to prepare test samples similarly as in the above case of feed, and the test samples were quantified. The right femurs taken out from the anatomized rats were dried at 105° C. for 15 hours and measured as a dry weight. The resulting dried femurs were precisely weighed in a porcelain crucible, and incinerated similarly as in the case of the feed. The resultants were weighed and quantified for calcium, magnesium and phosphorus.

[1] = feed supplemented with 1% cyclic tetrasaccharide
[2] = feed supplemented with 2% cyclic tetrasaccharide
[3] = feed supplemented with 5% cyclic tetrasaccharide

## OC[C@H]1O[C@@H]2OC[C@H]3O[C@H](O[C@@H]4[C@@H](O)[C@@H](OC[C@H]5O[C@H](O[C@H]([C@H]2O)[C@@H]1O)[C@H](O)[C@@H](O)[C@@H]5O)O[C@H](CO)[C@H]4O)[C@H](O)[C@@H](O)[C@@H]3O [cyclic tetrasaccharide, cyclo{>6)-α-D-glucopyranosyl-(1>3)-α-D-glucopyranosyl-(1>6)-α-D-glucopyranosyl-(1>3)-α-D-glucopyranosyl-(1>}]
Comparing with the control, 1%, 2%, 5% feeds
  amounts of dried bone weight, ash, calcium, magnesium and phosphorus: significantly increased
[1]
  Amount of ash: 0.64 * g/g dry femur
  Amount of calcium in femur: 217 * ^ mg/g dry femur
  Amount of magnesium in femur: 4.3 * mg/g dry femur
  Amount of phosphorus in femur: 115 * ^ mg/g dry femur
  Dry weight of femur: 0.68 * g
[2]
  Amount of ash: 0.65 * g/g dry femur
  Amount of calcium in femur: 225 * ^ mg/g dry femur
  Amount of magnesium in femur: 4.4 * mg/g dry femur
  Amount of phosphorus in femur: 116 * ^ mg/g dry femur
  Dry weight of femur: 0.71 * g
[3]
  Amount of ash: 0.66 * g/g dry femur
  Amount of calcium in femur: 240 * ^ mg/g dry femur
  Amount of magnesium in femur: 4.5 * mg/g dry femur
  Amount of phosphorus in femur: 118 * ^ mg/g dry femur
  Dry weight of femur: 0.71 * g
